Tested on: Lewis lung cancer cells
Test: Tumor growth inhibition assay in vivo of vinorelbine micellar preparation
Parameters: species or system Balb/c mice
Conditions: for Volume of tumor (mm^3): 5 mg/kg iv on the 1st, 8th and 15th day
Description: Fresh Lewis lung cancer cells (ATTC, CRL-1642) were inoculated subcutaneously into the axillary region of right forelimb of Balb/c mice (1×10^7/ml, 0.2 ml/mice). The mice (17-19 g, female) bearing tumor were then randomly divided into three groups, i.e. control group, free vinorelbine group (F-VNR) and vinorelbine micelle group (M-VNR), 6 mice each group. Administration was carried out on the next day to the inoculation. The doses of both F-VNR and M-VNR were 5 mg/kg (drug concentration: 0.5 mg/ml), iv volume 0.1 ml/10 g body weight, and the dose of the control group was iv 0.1 ml/10 g body weight of physiological saline. Dosing was performed once a week and continued for three weeks (dosing on the 1st, 8th and 15th day, respectively), wherein the length (a) and width (b) of the tumors were measured with vernier caliper on the 7th, 10th, 14th, 17th, and 21th day, respectively. The volume of the tumor was calculated according the formula V=a×b^2/2. […] The experiment results were shown in FIG. 5 as well as following table.

## CCC1=C[C@@H]2CN(C1)Cc1c([nH]c3ccccc13)[C@@](C(=O)OC)(c1cc3c(cc1OC)N(C)[C@H]1[C@@](O)(C(=O)OC)[C@H](OC(C)=O)[C@]4(CC)C=CCN5CC[C@]31[C@@H]54)C2 [F-VNR, vinorelbine]
5 mg/kg iv once a week for three weeks
  effect on growth of Lewis lung cancer tumor (in words): almost ineffective
7 days
  Volume of tumor (mm^3): 217 ± 94.5 mm^3
10 days
  Volume of tumor (mm^3): 810.3 ± 407.6 mm^3
14 days
  Volume of tumor (mm^3): 1694.3 ± 789.1 mm^3
17 days
  Volume of tumor (mm^3): 2460.1 ± 1367.1 mm^3
21 days
  Volume of tumor (mm^3): 5163 ± 2623.8 mm^3

Reference: patent US8765181B2, “Nano anticancer micelles of vinca alkaloids entrapped in polyethylene glycolylated phospholipids” (Beijing Diacrid Medical Technology Co., Ltd, priority 2005, dated 2014)
